# Laboratory results published in patent EP0908457B1, “3-(1,2-benzisothiazol- and isoxazol-5-Y1)-2,4(1H,3H)-pyrimidinedione or thione and 3-(1,2-benzisothiazol- and isoxazol-5-y1)-4(3H)-pyrimidinone or thione herbicidal agents” (BASF AKTIENGESELLSCHAFT, priority 1997, dated 1999).
# Assays:
# Sagittaria pygmaea, L. [1] = assay: Preemergence weed control under flooded paddy conditions, SAGPY (Arrowhead (Pygmaea)); format: in vivo; conditions: flooded paddy; for SAGPY: preemergence weeds, herbicidal effect rating 0-9, three to four weeks after treatment; for herbicidal effect rating, SAGPY: preemergence, rated three to four weeks after treatment; for herbicidal effect rating, SAGPY: meaning of each grade not given here
# [2] = test system: Monochoria vaginalis, Presl.; assay: Preemergence weed control under flooded paddy conditions, MOOVA (Monochoria); format: in vivo; conditions: flooded paddy; for MOOVA: preemergence weeds, herbicidal effect rating 0-9, three to four weeks after treatment; for herbicidal effect rating, MOOVA: preemergence, rated three to four weeks after treatment; for herbicidal effect rating, MOOVA: meaning of each grade not given here
# [3] = test system: Echinochloa oryzoides (Ard.) Fritsch.; assay: Preemergence weed control under flooded paddy conditions, ECHORC (Watergrass (Calif.)); format: in vivo; conditions: flooded paddy; for ECHORC: preemergence weeds, herbicidal effect rating 0-9, three to four weeks after treatment; for herbicidal effect rating, ECHORC: preemergence, rated three to four weeks after treatment; for herbicidal effect rating, ECHORC: meaning of each grade not given here
# [4] = test system: Cyperus serotinus, Rottb.; assay: Postemergence weed control under flooded paddy conditions, CYPSE (Flatsedge); format: in vivo; conditions: rated three to four weeks after treatment
# Cyperus iria [5] = assay: Preemergence weed control under flooded paddy conditions, CYPIR (Rice Flatsedge); format: in vivo; conditions: flooded paddy; for CYPIR: preemergence weeds, herbicidal effect rating 0-9, three to four weeks after treatment; for herbicidal effect rating, CYPIR: preemergence, rated three to four weeks after treatment; for herbicidal effect rating, CYPIR: meaning of each grade not given here
# Cyperus iria [6] = assay: Postemergence weed control under flooded paddy conditions, CYPIR (Rice Flatsedge); format: in vivo; conditions: rated three to four weeks after treatment
# Sagittaria pygmaea, L. [7] = assay: Postemergence weed control under flooded paddy conditions, SAGPY (Arrowhead (Pygmaea)); format: in vivo; conditions: rated three to four weeks after treatment
# [8] = test system: Oryza sativa, (L.) Tebonnet; assay: Rice tolerance to post-transplant applications under flooded paddy conditions (Example 188), ORYSAT (Rice, Tebonnet); conditions: rated three to four weeks after treatment
# [9] = test system: Oryza sativa, (L.) Tebonnet; assay: Rice tolerance to post-transplant applications under flooded paddy conditions (Example 187), ORYSAT (Rice, Tebonnet); conditions: for ORYSAT: herbicidal effect rating 0-9, three to four weeks after treatment; for herbicidal effect rating, ORYSAT (rice tolerance): rated three to four weeks after treatment
# [10] = test system: Monochoria vaginalis, Presl.; assay: Postemergence weed control under flooded paddy conditions, MOOVA (Monochoria); format: in vivo; conditions: rated three to four weeks after treatment
# [11] = test system: Echinochloa oryzoides (Ard.) Fritsch.; assay: Postemergence weed control under flooded paddy conditions, ECHORC (Watergrass (Calif.)); format: in vivo; conditions: rated three to four weeks after treatment
# [12] = test system: Cyperus serotinus, Rottb.; assay: Preemergence weed control under flooded paddy conditions, CYPSE (Flatsedge); format: in vivo; conditions: for CYPSE: preemergence weeds, herbicidal effect rating 0-9, three to four weeks after treatment; for herbicidal effect rating, CYPSE: preemergence, rated three to four weeks after treatment; for herbicidal effect rating, CYPSE: meaning of each grade not given here
compound,measurement,setting,value
"COc1ccc(I)cc1-c1nsc2ccc(-n3c(=O)cc(C(F)(F)F)n(C)c3=O)cc12 [Example 448, 2,4(1H,3H)-Pyrimidinedione, 3-[3-(5-iodo-2-methoxyphenyl)-1,2-benzisothiazol-5-yl]-1-methyl-6-(trifluoromethyl)-]",SAGPY,"Sagittaria pygmaea, L. [1]; 0.0320 kg/ha",0.0
same,SAGPY,"Sagittaria pygmaea, L. [1]; 0.0620 kg/ha",1.5
same,SAGPY,"Sagittaria pygmaea, L. [1]; 0.1250 kg/ha",2.5
same,SAGPY,"Sagittaria pygmaea, L. [1]; 0.2500 kg/ha",3.5
same,MOOVA,[2]; 0.0320 kg/ha,9.0
same,MOOVA,[2]; 0.0620 kg/ha,9.0
same,MOOVA,[2]; 0.1250 kg/ha,9.0
same,MOOVA,[2]; 0.2500 kg/ha,9.0
same,ECHORC,[3]; 0.0320 kg/ha,9.0
same,ECHORC,[3]; 0.0620 kg/ha,9.0
same,ECHORC,[3]; 0.1250 kg/ha,9.0
same,ECHORC,[3]; 0.2500 kg/ha,9.0
same,"herbicidal effect rating, CYPSE",[4]; Rate 0.0620 kg/ha,0.0
same,"herbicidal effect rating, CYPSE",[4]; Rate 0.1250 kg/ha,0.0
same,"herbicidal effect rating, CYPSE",[4]; Rate 0.2500 kg/ha,0.0
same,CYPIR,Cyperus iria [5]; 0.0320 kg/ha,8.5
same,CYPIR,Cyperus iria [5]; 0.0620 kg/ha,9.0
same,CYPIR,Cyperus iria [5]; 0.1250 kg/ha,9.0
same,CYPIR,Cyperus iria [5]; 0.2500 kg/ha,9.0
same,"herbicidal effect rating, CYPIR",Cyperus iria [6]; Rate 0.1250 kg/ha,7.0
same,"herbicidal effect rating, CYPIR",Cyperus iria [6]; Rate 0.2500 kg/ha,9.0
same,"herbicidal effect rating, SAGPY","Sagittaria pygmaea, L. [7]; Rate 0.0620 kg/ha",0.0
same,"herbicidal effect rating, SAGPY","Sagittaria pygmaea, L. [7]; Rate 0.1250 kg/ha",0.0
same,"herbicidal effect rating, SAGPY","Sagittaria pygmaea, L. [7]; Rate 0.2500 kg/ha",0.0
same,"herbicidal effect rating, ORYSAT (rice tolerance)",[8]; Rate 0.0620 kg/ha,0.0
same,"herbicidal effect rating, ORYSAT (rice tolerance)",[8]; Rate 0.1250 kg/ha,1.0
same,"herbicidal effect rating, ORYSAT (rice tolerance)",[8]; Rate 0.2500 kg/ha,2.0
same,ORYSAT,[9]; 0.0320 kg/ha,3.5
same,ORYSAT,[9]; 0.0620 kg/ha,4.0
same,ORYSAT,[9]; 0.1250 kg/ha,4.0
same,ORYSAT,[9]; 0.2500 kg/ha,4.0
same,"herbicidal effect rating, MOOVA",[10]; Rate 0.0620 kg/ha,0.0
same,"herbicidal effect rating, MOOVA",[10]; Rate 0.1250 kg/ha,1.0
same,"herbicidal effect rating, MOOVA",[10]; Rate 0.2500 kg/ha,4.0
same,"herbicidal effect rating, ECHORC",[11]; Rate 0.0620 kg/ha,0.0
same,"herbicidal effect rating, ECHORC",[11]; Rate 0.1250 kg/ha,1.0
same,"herbicidal effect rating, ECHORC",[11]; Rate 0.2500 kg/ha,2.0
same,CYPSE,[12]; 0.0320 kg/ha,4.5
same,CYPSE,[12]; 0.0620 kg/ha,4.5
same,CYPSE,[12]; 0.1250 kg/ha,4.5
same,CYPSE,[12]; 0.2500 kg/ha,6.5
"Cc1nsc2ccc(-n3c(=O)cc(C(F)(F)F)n(C)c3=O)cc12 [Example 6, 1-Methyl-3-(3-methyl-1,2-benzisothiazol-5-yl)-6-(trifluoromethyl)-2,4(1H,3H)-pyrimidinedione]","herbicidal effect rating, SAGPY","Sagittaria pygmaea, L. [1]; 0.0625 kg/ha",4.0
same,"herbicidal effect rating, SAGPY","Sagittaria pygmaea, L. [1]; 0.1250 kg/ha",7.0
same,"herbicidal effect rating, SAGPY","Sagittaria pygmaea, L. [1]; 0.2500 kg/ha",7.0
same,"herbicidal effect rating, SAGPY","Sagittaria pygmaea, L. [1]; 0.5000 kg/ha",9.0
same,"herbicidal effect rating, MOOVA",[2]; 0.0625 kg/ha,9.0
same,"herbicidal effect rating, MOOVA",[2]; 0.1250 kg/ha,9.0
same,"herbicidal effect rating, MOOVA",[2]; 0.2500 kg/ha,9.0
same,"herbicidal effect rating, MOOVA",[2]; 0.5000 kg/ha,9.0
same,"herbicidal effect rating, ECHORC",[3]; 0.0625 kg/ha,6.0
same,"herbicidal effect rating, ECHORC",[3]; 0.1250 kg/ha,8.0
same,"herbicidal effect rating, ECHORC",[3]; 0.2500 kg/ha,9.0
same,"herbicidal effect rating, ECHORC",[3]; 0.5000 kg/ha,9.0
same,"herbicidal effect rating, CYPSE",[4]; Rate 0.0313 kg/ha,0.0
same,"herbicidal effect rating, CYPSE",[4]; Rate 0.0625 kg/ha,2.0
same,"herbicidal effect rating, CYPSE",[4]; Rate 0.1250 kg/ha,7.0
same,"herbicidal effect rating, CYPSE",[4]; Rate 0.2500 kg/ha,7.0
same,"herbicidal effect rating, CYPSE",[4]; Rate 0.5000 kg/ha,9.0
same,"herbicidal effect rating, CYPIR",Cyperus iria [5]; 0.0625 kg/ha,9.0
same,"herbicidal effect rating, CYPIR",Cyperus iria [5]; 0.1250 kg/ha,9.0
same,"herbicidal effect rating, CYPIR",Cyperus iria [5]; 0.2500 kg/ha,9.0
same,"herbicidal effect rating, CYPIR",Cyperus iria [5]; 0.5000 kg/ha,9.0
same,"herbicidal effect rating, CYPIR",Cyperus iria [6]; Rate 0.0313 kg/ha,9.0
same,"herbicidal effect rating, CYPIR",Cyperus iria [6]; Rate 0.0625 kg/ha,9.0
same,"herbicidal effect rating, CYPIR",Cyperus iria [6]; Rate 0.1250 kg/ha,9.0
same,"herbicidal effect rating, CYPIR",Cyperus iria [6]; Rate 0.2500 kg/ha,9.0
same,"herbicidal effect rating, CYPIR",Cyperus iria [6]; Rate 0.5000 kg/ha,9.0
same,"herbicidal effect rating, SAGPY","Sagittaria pygmaea, L. [7]; Rate 0.0313 kg/ha",2.0
same,"herbicidal effect rating, SAGPY","Sagittaria pygmaea, L. [7]; Rate 0.0625 kg/ha",4.0
same,"herbicidal effect rating, SAGPY","Sagittaria pygmaea, L. [7]; Rate 0.1250 kg/ha",6.0
same,"herbicidal effect rating, SAGPY","Sagittaria pygmaea, L. [7]; Rate 0.2500 kg/ha",8.0
same,"herbicidal effect rating, SAGPY","Sagittaria pygmaea, L. [7]; Rate 0.5000 kg/ha",9.0
same,"herbicidal effect rating, ORYSAT (rice tolerance)",[8]; Rate 0.0313 kg/ha,4.0
same,"herbicidal effect rating, ORYSAT (rice tolerance)",[8]; Rate 0.0625 kg/ha,4.0
same,"herbicidal effect rating, ORYSAT (rice tolerance)",[8]; Rate 0.1250 kg/ha,9.0
same,"herbicidal effect rating, ORYSAT (rice tolerance)",[8]; Rate 0.2500 kg/ha,9.0
same,"herbicidal effect rating, ORYSAT (rice tolerance)",[8]; Rate 0.5000 kg/ha,9.0
same,"herbicidal effect rating, ORYSAT (rice tolerance)",[9]; 0.0625 kg/ha,8.0
same,"herbicidal effect rating, ORYSAT (rice tolerance)",[9]; 0.1250 kg/ha,8.0
same,"herbicidal effect rating, ORYSAT (rice tolerance)",[9]; 0.2500 kg/ha,8.0
same,"herbicidal effect rating, ORYSAT (rice tolerance)",[9]; 0.5000 kg/ha,8.0
same,"herbicidal effect rating, MOOVA",[10]; Rate 0.0313 kg/ha,9.0
same,"herbicidal effect rating, MOOVA",[10]; Rate 0.0625 kg/ha,9.0
same,"herbicidal effect rating, MOOVA",[10]; Rate 0.1250 kg/ha,9.0
same,"herbicidal effect rating, MOOVA",[10]; Rate 0.2500 kg/ha,9.0
same,"herbicidal effect rating, MOOVA",[10]; Rate 0.5000 kg/ha,9.0
same,"herbicidal effect rating, ECHORC",[11]; Rate 0.0313 kg/ha,4.0
same,"herbicidal effect rating, ECHORC",[11]; Rate 0.0625 kg/ha,7.0
same,"herbicidal effect rating, ECHORC",[11]; Rate 0.1250 kg/ha,9.0
same,"herbicidal effect rating, ECHORC",[11]; Rate 0.2500 kg/ha,9.0
same,"herbicidal effect rating, ECHORC",[11]; Rate 0.5000 kg/ha,9.0
same,"herbicidal effect rating, CYPSE",[12]; 0.0625 kg/ha,4.0
same,"herbicidal effect rating, CYPSE",[12]; 0.1250 kg/ha,7.0
same,"herbicidal effect rating, CYPSE",[12]; 0.2500 kg/ha,9.0
same,"herbicidal effect rating, CYPSE",[12]; 0.5000 kg/ha,9.0
